Laboratory results published in patent EP2687213B1, “Solid forms comprising (+)-2-[1-(3-ethoxy-4-methoxyphenyl)-2-methylsulfonylethyl]-4-acetylaminoisoindoline-1,3-dione, compositions thereof, and uses thereof” (CELGENE CORPORATION, priority 2008, dated 2009).

Key:
[1] = tested on: bovine PDE1; test: PDE1 enzyme assay; format: biochemical; details: from PDE inhibition data of Table 1
[2] = Equilibrium aqueous solubility in pH 7.4 buffer; format: physicochemical
Method: Equilibrium solubilities were measured in pH 7.4 aqueous buffer. The pH 7.4 buffer was prepared by adjusting the pH of a 0.07 M NaH2PO4 solution to 7.4 with 10 N NaOH. The ionic strength of the solution was 0.15. At least 1 mg of powder was combined with 1 ml of buffer to make >1 mg/ml mixture. These samples were shaken for >2 hours and left to stand overnight at room temperature. The samples were then filtered through a 0.45-µm Nylon syringe filter that was first saturated with the sample. The filtrate was sampled twice, consecutively. The filtrate was assayed by HPLC against standards prepared in 50% methanol.

[3] = target: human PDE2 (Homo sapiens, UniProt O00408); test: PDE2 enzyme assay; format: biochemical; details: from PDE inhibition data of Table 1
[4] = tested on: patients with severe plaque-type psoriasis
[5] = tested on: subjects with moderate to severe plaque-type psoriasis; test: Phase 2 randomized double-blind placebo-controlled study in moderate to severe plaque-type psoriasis; format: in vivo, human
Method: This phase 2, multicenter, randomized, double-blind, placebo-controlled, parallel-group, dose-comparison study evaluated the efficacy and safety of Compound A in subjects with moderate to severe plaque-type psoriasis who were candidates for systemic therapy.
This study included a 12-week treatment phase followed by a 4-week observational follow-up phase. A total of 260 subjects were randomized to receive Compound A 20 mg BID, Compound A 20 mg QD, or placebo for 12 weeks. The primary endpoint for this study was the proportion of subjects treated with Compound A who achieved a 75% reduction in Psoriasis Area and Severity Index score ("PASI-75") at week 12/last treatment in reference to the baseline visit. Last treatment is defined as the last PASI assessment completed during the 12-week treatment phase.

[6] = target: PDE5 from human platelets (Homo sapiens, UniProt O76074); test: PDE5 enzyme assay; format: biochemical; details: from PDE inhibition data of Table 1
[7] = target: PDE3 from human platelets (Homo sapiens, UniProt Q14432); test: PDE3 enzyme assay; format: biochemical; details: from PDE inhibition data of Table 1
[8] = tested on: conscious ferret; test: Emesis and behavioral changes in conscious ferrets after oral dosing; format: in vivo; details: for Ataxia / Backward walking / Flattened posture / Lip licking / Mouth clawing / Panting / Retches / Salivation / Vomits: oral, (animals that responded/group)
Method: PDE4 inhibitors were administered orally (p.o.), at doses initially of […], but subsequently up to 30 mg/kg in order to establish whether the TI was 10 or higher, and/or at lower doses to establish the minimum dose to cause 50% inhibition of neutrophilia. Ferrets were fasted overnight but allowed free access to water. The animals were orally dosed with vehicle or PDE4 inhibitor using a 15 cm dosing needle that was passed down the back of the throat into the oesophagus. After dosing, the animals were returned to holding cages fitted with Perspex doors to allow observation, and given free access to water. After dosing, the animals were constantly observed and any emesis or behavioral changes were recorded. The animals were allowed access to food 60 to 90 minutes after p.o. dosing.
Thirty minutes after p.o. dosing with compound or vehicle control, the ferrets were placed into sealed Perspex containers and exposed to an aerosol of LPS (100 µg/ml) for 10 minutes. Aerosols of LPS were generated by a nebulizer (DeVilbiss, USA) and this was directed into the Perspex exposure chamber. Following a 10 minute exposure period, the animals were returned to the holding cages and allowed free access to water, and at a later stage, food. Observation continued for a period of at least 2.5 hours post p.o. dosing and emetic episodes and behavioral changes were recorded.
• 1. % Inhibition of LPS-induced pulmonary neutrophilia. • 2. Emetic episodes - the number of vomits and retches were counted. • 3. Behavioral changes - the following behavioral effects were noted: salivation, panting, mouth clawing, flattened posture, ataxia, arched back and backward walking. Any behavioral changes were semi-quantified by applying a severity rating (mild, moderate or severe). • 4. The TI was calculated as the highest dose found to not cause emetic episodes divided by the lowest dose found to inhibit pulmonary neutrophilia by 50% or more.
Numbers in parentheses refer to the number of animals that responded. The numbers of animals in each group range from 4 to 22.

[9] = 20 mg orally daily, number of patients
[10] = responders (≥ 20% epidermal thickness reduction), 8 patients, Day 29

Sequence of PDE3 from human platelets (Q14432 whole entry): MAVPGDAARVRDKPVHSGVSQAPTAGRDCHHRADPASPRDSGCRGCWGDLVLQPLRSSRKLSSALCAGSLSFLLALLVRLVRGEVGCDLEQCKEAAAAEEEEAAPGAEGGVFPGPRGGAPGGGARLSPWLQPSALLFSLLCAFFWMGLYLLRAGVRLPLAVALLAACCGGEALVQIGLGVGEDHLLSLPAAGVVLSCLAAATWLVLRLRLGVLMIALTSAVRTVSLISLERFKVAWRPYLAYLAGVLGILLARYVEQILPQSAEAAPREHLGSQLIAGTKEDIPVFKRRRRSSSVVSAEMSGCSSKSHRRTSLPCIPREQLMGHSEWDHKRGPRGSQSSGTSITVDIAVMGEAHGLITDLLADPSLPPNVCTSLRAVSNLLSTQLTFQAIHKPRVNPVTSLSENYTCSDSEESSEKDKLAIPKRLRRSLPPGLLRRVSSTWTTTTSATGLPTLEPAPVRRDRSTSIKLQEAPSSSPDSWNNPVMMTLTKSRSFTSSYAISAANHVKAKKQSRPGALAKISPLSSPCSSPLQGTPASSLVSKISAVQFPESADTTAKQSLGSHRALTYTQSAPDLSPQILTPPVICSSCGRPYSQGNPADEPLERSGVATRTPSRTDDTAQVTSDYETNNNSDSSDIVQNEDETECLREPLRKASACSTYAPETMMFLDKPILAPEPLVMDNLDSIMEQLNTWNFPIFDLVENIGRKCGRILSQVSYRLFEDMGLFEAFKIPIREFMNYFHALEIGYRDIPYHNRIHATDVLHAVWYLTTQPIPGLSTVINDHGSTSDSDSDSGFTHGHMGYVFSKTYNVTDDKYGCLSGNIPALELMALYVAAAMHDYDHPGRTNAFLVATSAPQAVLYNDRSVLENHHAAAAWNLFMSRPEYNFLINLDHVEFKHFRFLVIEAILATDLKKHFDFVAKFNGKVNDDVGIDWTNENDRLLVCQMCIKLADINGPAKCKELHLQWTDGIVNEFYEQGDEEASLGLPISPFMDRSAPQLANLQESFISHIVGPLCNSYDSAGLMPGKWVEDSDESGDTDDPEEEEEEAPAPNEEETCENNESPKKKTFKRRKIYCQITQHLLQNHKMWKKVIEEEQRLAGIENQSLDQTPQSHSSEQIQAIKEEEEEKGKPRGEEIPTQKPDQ
Sequence of human PDE2 (O00408 whole entry): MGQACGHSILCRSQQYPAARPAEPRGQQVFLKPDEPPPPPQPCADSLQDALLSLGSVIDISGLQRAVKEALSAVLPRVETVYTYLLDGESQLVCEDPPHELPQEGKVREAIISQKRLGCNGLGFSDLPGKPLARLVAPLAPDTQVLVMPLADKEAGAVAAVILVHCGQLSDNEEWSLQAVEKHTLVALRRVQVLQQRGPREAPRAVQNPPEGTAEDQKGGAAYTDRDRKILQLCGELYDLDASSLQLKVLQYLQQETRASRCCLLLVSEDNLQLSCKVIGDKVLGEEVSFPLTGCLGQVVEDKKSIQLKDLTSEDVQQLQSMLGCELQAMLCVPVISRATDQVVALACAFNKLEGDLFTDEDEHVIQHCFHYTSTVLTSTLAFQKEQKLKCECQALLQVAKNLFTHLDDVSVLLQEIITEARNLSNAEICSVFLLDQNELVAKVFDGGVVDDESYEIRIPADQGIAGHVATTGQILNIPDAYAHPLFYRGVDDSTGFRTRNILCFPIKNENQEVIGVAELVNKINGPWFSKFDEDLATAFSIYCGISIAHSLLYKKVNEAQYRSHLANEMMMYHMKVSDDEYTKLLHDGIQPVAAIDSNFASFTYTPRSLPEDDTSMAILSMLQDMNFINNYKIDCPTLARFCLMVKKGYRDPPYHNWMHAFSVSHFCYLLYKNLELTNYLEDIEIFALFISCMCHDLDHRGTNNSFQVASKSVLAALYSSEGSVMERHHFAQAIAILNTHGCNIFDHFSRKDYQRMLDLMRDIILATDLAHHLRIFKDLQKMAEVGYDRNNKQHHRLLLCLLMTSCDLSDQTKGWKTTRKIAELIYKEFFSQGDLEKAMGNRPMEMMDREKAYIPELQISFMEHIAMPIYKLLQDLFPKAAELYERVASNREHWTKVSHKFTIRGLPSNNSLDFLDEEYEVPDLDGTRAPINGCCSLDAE

With `CCOc1cc(C(CS(C)(=O)=O)N2C(=O)c3cccc(NC(C)=O)c3C2=O)ccc1OC` (single isomer, unassigned; (+)) [Compound A, (+)-2-[1-(3-ethoxy-4-methoxyphenyl)-2-methylsulfonylethyl]-4-acetylaminoisoindoline-1,3-dione] the “PDE Specificity Ratio PDE4/PDE1” value [1] was over 500 fold, the “aqueous solubility greater than the racemic mixture” value [2] was 3.5 fold and the “PDE Specificity Ratio PDE4/PDE2” value [3] was over 10000 fold. For the same compound, the “patients with abnormal HLA-DR that had normal HLA-DR at Day 29” value [4, 9] was “Two”, the “patients with abnormal ICAM-1 at baseline that had normal ICAM-1 at Day 29” value [4, 9] was “Three” and the “patients with abnormal K16 at baseline that had normal K16 at Day 29” value [4, 9] was “one”. The “patients with abnormal fillagrin at baseline that had normal fillagrin at Day 29” value [4, 9] was “three”, the “safety (overall conclusion)” value ([4]; 20 mg p.o. QD for 29 days) was “safe” and the “Percentage Reduction of Key Inflammatory Markers at Day 29: CD11c, Dermis” value ([4]; Responder, signed change) was -18.50%. The “Percentage Reduction of Key Inflammatory Markers at Day 29: CD11c, Epidermis” value ([4]; Responder, signed change) was -40.16%, the “Percentage Reduction of Key Inflammatory Markers at Day 29: CD83+, Dermis” value ([4]; Responder, signed change) was -25.86% and the “Percentage Reduction of Key Inflammatory Markers at Day 29: CD83+, Epidermis” value ([4]; Responder, signed change) was -32.50%. For the same compound, the “Percentage Reduction of Key Inflammatory Markers at Day 29: T-cells, Dermis” value ([4]; Responder, signed change) was -28.79%, the “Percentage Reduction of Key Inflammatory Markers at Day 29: T-cells, Epidermis” value ([4]; Responder, signed change) was -42.56% and the “decrease of dermal T-cells” value [4, 10] was 28.79%. For the same compound, the “decrease of epidermal T-cells” value [4, 10] was 42.56%, the “CD11c cells reduced in the dermis” value ([4]; responders, Day 29) was 18.50% and the “CD11c cells reduced in the epidermis” value ([4]; responders, Day 29) was 40.16%. The “Mean reduction from baseline in dermal CD83+ cells” value ([4]; responders, Day 29) was 25.86%, the “Mean reduction from baseline in epidermal CD83+ cells” value ([4]; responders, Day 29) was 32.50% and the deaths ([4]; treatment and follow-up phases) was “No deaths were reported”. The “psoriasis flare during the observational follow-up period” value ([5]; 20 mg BID group, 4-week follow-up) was “No subjects”, the “study drug-related serious adverse events” value ([5]; 20 mg BID or 20 mg QD, 12 weeks) was “No study drug-related serious adverse events were reported” and the “tolerability and safety (overall conclusion)” value ([5]; 12 weeks of treatment) was “well tolerated and safe”. For the same compound, the “PDE Specificity Ratio PDE4/PDE5” value [6] was over 30000 fold, the “PDE Specificity Ratio PDE4/PDE3” value [7] was over 1200 fold and the emetic episodes ([8]; 10 mg/kg p.o., in 2/6 ferrets) was “some retching but no frank emesis”. The emesis ([8]; 30 mg/kg p.o. (highest dose tested), in 3/4 animals) was “moderate to marked emesis”, the “behavioral changes (flattened posture, lip licking and backward walking), severity” value ([8]; 0.1-3 mg/kg, p.o.) was “mild” and the “emetic episodes (retching and vomiting)” value ([8]; 0.1-3 mg/kg, p.o.) was “no emetic episodes”. The Ataxia ([8]; 0.1 mg/kg) was “None”, the Backward walking ([8]; 0.1 mg/kg) was “Mild (3/5)” and the Flattened posture ([8]; 0.1 mg/kg) was “Mild (2/5)”. For the same compound, the Lip licking ([8]; 0.1 mg/kg) was “Mild (4/5)”, the Mouth clawing ([8]; 0.1 mg/kg) was “None” and the Panting ([8]; 0.1 mg/kg) was “None”. For the same compound, the Retches ([8]; 0.1 mg/kg) was “None”, the Salivation ([8]; 0.1 mg/kg) was “None” and the Vomits ([8]; 0.1 mg/kg) was “None”. For the same compound, the Ataxia ([8]; 0.3 mg/kg) was “None”, the Backward walking ([8]; 0.3 mg/kg) was “Mild (4/6)” and the Flattened posture ([8]; 0.3 mg/kg) was “Mild (2/6)”. The Lip licking ([8]; 0.3 mg/kg) was “Mild (3/6)”, the Mouth clawing ([8]; 0.3 mg/kg) was “None” and the Panting ([8]; 0.3 mg/kg) was “None”. The Retches ([8]; 0.3 mg/kg) was “None”, the Salivation ([8]; 0.3 mg/kg) was “None” and the Vomits ([8]; 0.3 mg/kg) was “None”. The Ataxia ([8]; 1.0 mg/kg) was “None”, the Backward walking ([8]; 1.0 mg/kg) was “Mild (4/6)” and the Flattened posture ([8]; 1.0 mg/kg) was “Mild (2/6)”. For the same compound, the Lip licking ([8]; 1.0 mg/kg) was “Mild (6/6)”, the Mouth clawing ([8]; 1.0 mg/kg) was “None” and the Panting ([8]; 1.0 mg/kg) was “None”. The Retches ([8]; 1.0 mg/kg) was “None”, the Salivation ([8]; 1.0 mg/kg) was “None” and the Vomits ([8]; 1.0 mg/kg) was “None”. For the same compound, the Ataxia ([8]; 3.0 mg/kg) was “None”, the Backward walking ([8]; 3.0 mg/kg) was “Moderate (5/8)” and the Flattened posture ([8]; 3.0 mg/kg) was “Marked (7/8)”. The Lip licking ([8]; 3.0 mg/kg) was “Mild (2/8)”, the Mouth clawing ([8]; 3.0 mg/kg) was “Mild (1/8)” and the Panting ([8]; 3.0 mg/kg) was “None”. For the same compound, the Retches ([8]; 3.0 mg/kg) was “None”, the Salivation ([8]; 3.0 mg/kg) was “None” and the Vomits ([8]; 3.0 mg/kg) was “None”. The Ataxia ([8]; 10 mg/kg) was “None”, the Backward walking ([8]; 10 mg/kg) was “Marked (6/6)” and the Flattened posture ([8]; 10 mg/kg) was “Marked (6/6)”. For the same compound, the Lip licking ([8]; 10 mg/kg) was “Moderate (5/6)”, the Mouth clawing ([8]; 10 mg/kg) was “Mild (1/6)” and the Panting ([8]; 10 mg/kg) was “None”. For the same compound, the Retches ([8]; 10 mg/kg) was “Mild (2/6)”, the Salivation ([8]; 10 mg/kg) was “Mild (1/6)” and the Vomits ([8]; 10 mg/kg) was “None”. For the same compound, the Ataxia ([8]; 30 mg/kg) was “Mild (3/4)”, the Backward walking ([8]; 30 mg/kg) was “Mild (2/4)” and the Flattened posture ([8]; 30 mg/kg) was “Marked (4/4)”. For the same compound, the Lip licking ([8]; 30 mg/kg) was “Moderate (4/4)”, the Mouth clawing ([8]; 30 mg/kg) was “Marked (4/4)” and the Panting ([8]; 30 mg/kg) was “Mild (1/4)”. For the same compound, the Retches ([8]; 30 mg/kg) was “Marked (3/4)”, the Salivation ([8]; 30 mg/kg) was “Moderate (3/4)” and the Vomits ([8]; 30 mg/kg) was “Moderate (3/4)”.
